Assay results published in US12129221B2, “Difluoro phenyl amide RIP1 inhibitor” (SIRONAX LTD, priority 2018, dated 2024).
Where two headings read alike, the source gives them in different places.

Assays:
[1] = Hepatocyte stability, monkey; format: in vitro ADME; conditions: monkey, hepatocytes, read-out: Monkey T1/2
Description: (§1) Representative Metabolic Stability Data II, +, Extrapolated.

[2] = Hepatocyte stability, human; format: in vitro ADME; conditions: human, hepatocytes, read-out: Human T1/2
Description: as §1

[3] = Liver microsome stability, rat; format: in vitro ADME; conditions: liver microsomes
Description: (§2) Representative Metabolic Stability Data I; +, Extrapolated.

Human RIP1 kinase = Human RIP1 kinase (Homo sapiens (Human), UniProt Q13546); assay: Human RIP1 kinase assay; format: biochemical; conditions: given as bound or range
Description: (§3) Representative IC50 of hRIP1 Kinase Assay Correlated with Our IC50 of Cell Necrosis Assay: […]

necrosis = assay: Necrosis inhibitory activity (cell necrosis / cell viability assay); format: cell-based
Description: Necrosis Inhibitory Activity
as §3

PK in mouse = conditions: in vivo
[4] = Liver microsome stability, human; format: in vitro ADME; conditions: liver microsomes, liver microsome stability, read-out: Human T1/2
Description: as §2

[5] = Hepatocyte Stability, comparison table

Human RIP1 kinase, sequence (Q13546 whole entry): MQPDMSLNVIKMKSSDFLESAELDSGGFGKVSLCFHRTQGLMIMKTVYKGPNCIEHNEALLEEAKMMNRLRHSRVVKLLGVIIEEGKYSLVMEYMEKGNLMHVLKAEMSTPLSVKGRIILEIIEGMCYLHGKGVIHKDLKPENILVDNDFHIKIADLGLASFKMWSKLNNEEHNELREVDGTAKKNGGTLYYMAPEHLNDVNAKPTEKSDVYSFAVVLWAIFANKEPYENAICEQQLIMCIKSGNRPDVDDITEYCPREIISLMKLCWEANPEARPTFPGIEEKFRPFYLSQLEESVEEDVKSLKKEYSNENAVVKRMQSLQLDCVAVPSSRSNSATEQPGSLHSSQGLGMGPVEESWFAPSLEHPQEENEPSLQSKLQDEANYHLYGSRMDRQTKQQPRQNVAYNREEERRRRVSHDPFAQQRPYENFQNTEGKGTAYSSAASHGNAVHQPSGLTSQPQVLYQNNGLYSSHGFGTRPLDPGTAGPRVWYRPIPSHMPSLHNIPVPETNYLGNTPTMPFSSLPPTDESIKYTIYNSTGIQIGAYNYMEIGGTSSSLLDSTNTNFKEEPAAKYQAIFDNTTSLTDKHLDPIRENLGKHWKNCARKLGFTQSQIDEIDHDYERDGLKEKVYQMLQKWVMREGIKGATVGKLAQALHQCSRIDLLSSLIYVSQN

Structure (SMILES): CCC(C)(C)C(=O)N(O)Cc1cc(F)cc(F)c1 [Compound 13, N-(3,5-difluorobenzyl)-N-hydroxy-2,2-dimethylbutanamide]
- half-life [1, 5]: 25 min
- half-life ([1]; Hepatocyte stability): 24.9 min
- half-life [2, 5]: 152 min
- half-life ([2]; Hepatocyte stability): 152 min
- half-life ([3]; comparison table with WO2016/101885 compounds, read-out: Rat Liver Microsome T1/2): 20 min
- half-life ([3]; liver microsome stability, read-out: Rat T1/2): 19.9 min
- IC50 (Human RIP1 kinase): < 100 nM
- EC50 (necrosis; Necrosis Inhibitory Activity, given as range, read-out: EC50): 1 to 1000 nM
- EC50 (necrosis; cell necrosis assay, given as bound or range, read-out: Cell viability assay, EC50): < 100 nM
- AUC(0-inf) (PK in mouse; IV 2 mg/kg): 489 ng·h/mL
- clearance (PK in mouse; IV 2 mg/kg): 68.2 mL/min/kg
- half-life (PK in mouse; IV 2 mg/kg): 17.4 min
- Vd (PK in mouse; IV 2 mg/kg, read-out: Vdss): 1.7 L/kg
- AUC(0-inf) (PK in mouse; PO 10 mg/kg): 823 ng·h/mL
- Cmax (PK in mouse; PO 10 mg/kg): 1000 ng/mL
- bioavailability (PK in mouse; PO 10 mg/kg): 33.7%
- half-life (PK in mouse; PO 10 mg/kg): 28.8 min
- AUC(0-inf) (PK in mouse; PO 40 mg/kg): 5410 ng·h/mL
- Cmax (PK in mouse; PO 40 mg/kg): 5420 ng/mL
- bioavailability (PK in mouse; PO 40 mg/kg): 55.4%
- half-life (PK in mouse; PO 40 mg/kg): 49.8 min
- half-life [4]: 228 min
